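Growth conditions: 96-well plates. Treatment: test compound, 48 hours, 5 concentrations. Analysis: linear interpolation between bracketing concentrations; unreached endpoints set to highest concentration. Abbreviation: GI50, concentration required for 50% inhibition of growth.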 Activity calls are given as the source filed them. Cut-off read from the data, not from the text of the source: active = GI50 up to about 1.1 µM and inactive = higher.
Tests used:
Experiment in all cases: NCI-60 cell line screen, 48 h
NCI-H226 = test system: NCI-H226
SN12C = test system: SN12C
LOX IMVI = test system: LOX IMVI
RPMI-8226 = test system: RPMI-8226
SNB-19 = test system: SNB-19
IGROV-1 = test system: IGROV-1
OVCAR-4 = test system: OVCAR-4
HCT-15 = test system: HCT-15
EKVX = test system: EKVX
MOLT-4 = test system: MOLT-4
HL-60 = test system: HL-60
KM12 = test system: KM12
A549 = test system: A549
CAKI-1 = test system: CAKI-1
SNB-75 = test system: SNB-75
RXF 393 = test system: RXF 393

SMILES: O=C(CCC(=O)C(C(=O)c1ccccc1)c1ccccc1)Nc1cccc(C(F)(F)F)c1 (stereo not given)
- GI50 (NCI-H226): > 100 µM (inactive)
- GI50 (SN12C): > 100 µM (inactive)
- GI50 (LOX IMVI): > 100 µM (inactive)
- GI50 (RPMI-8226): > 100 µM (inactive)
- GI50 (SNB-19): > 100 µM (inactive)
- GI50 (IGROV-1): > 100 µM (inactive)
- GI50 (OVCAR-4): > 100 µM (inactive)
- GI50 (HCT-15): > 100 µM
- GI50 (EKVX): > 100 µM (inactive)
- GI50 (MOLT-4): > 100 µM (inactive)
- GI50 (HL-60): > 100 µM (inactive)
- GI50 (KM12): > 100 µM (inactive)
- GI50 (A549): > 100 µM (inactive)
- GI50 (CAKI-1): > 100 µM (inactive)

SMILES: O=C(CC12C3C4C1C1C2C3C41CC(=O)NO)NO (stereo not given)
- GI50 (NCI-H226): 34 µM (inactive)
- GI50 (SN12C): 41.2 µM (inactive)
- GI50 (LOX IMVI): 28.9 µM (inactive)
- GI50 (RPMI-8226): 40.3 µM (inactive)
- GI50 (SNB-19): > 100 µM (inactive)
- GI50 (HCT-15): 44.2 µM
- GI50 (EKVX): > 100 µM (inactive)
- GI50 (MOLT-4): 45.8 µM (inactive)
- GI50 (HL-60): 36.9 µM (inactive)
- GI50 (SNB-75): 29.6 µM (inactive)
- GI50 (KM12): 38.8 µM (inactive)
- GI50 (A549): 37.8 µM (inactive)
- GI50 (CAKI-1): 71.8 µM (inactive)

SMILES: O=[N+]([O-])C(=C(c1ccccc1)c1ccccc1)[N+](=O)[O-]
- GI50 (NCI-H226): 31.1 µM (inactive)
- GI50 (SN12C): 15.5 µM (inactive)
- GI50 (LOX IMVI): 2.96 µM (inactive)
- GI50 (RPMI-8226): 2.45 µM (inactive)
- GI50 (SNB-19): 15.7 µM (inactive)
- GI50 (IGROV-1): 5.96 µM (inactive)
- GI50 (RXF 393): 3.69 µM (inactive)
- GI50 (OVCAR-4): 14.5 µM (inactive)
- GI50 (HCT-15): 13.8 µM
- GI50 (EKVX): > 10 µM (inactive)
- GI50 (MOLT-4): 3.32 µM (inactive)
- GI50 (HL-60): 3.32 µM (inactive)
- GI50 (SNB-75): 10.2 µM (inactive)
- GI50 (KM12): 15.5 µM (inactive)
- GI50 (A549): 23.1 µM (inactive)
- GI50 (CAKI-1): 21.1 µM (inactive)

SMILES: Cc1nc2c(n1CCC(C)C)C(=O)c1ccccc1C2=O
- GI50 (NCI-H226): 45.2 µM (inactive)
- GI50 (SN12C): 23.2 µM (inactive)
- GI50 (LOX IMVI): 14.7 µM (inactive)
- GI50 (SNB-19): 39.7 µM (inactive)
- GI50 (IGROV-1): 22.3 µM (inactive)
- GI50 (RXF 393): 23.4 µM (inactive)
- GI50 (OVCAR-4): 36.6 µM (inactive)
- GI50 (HCT-15): 11.9 µM
- GI50 (EKVX): 29.7 µM (inactive)
- GI50 (MOLT-4): 8.26 µM (inactive)
- GI50 (HL-60): 6 µM (inactive)
- GI50 (SNB-75): 20.1 µM (inactive)
- GI50 (KM12): 21.3 µM (inactive)
- GI50 (A549): 30.4 µM (inactive)

SMILES: CC(=O)Nc1ccc(OCC(O)CO)cc1 (stereo not given)
- GI50 (NCI-H226): > 100 µM (inactive)
- GI50 (SN12C): > 100 µM (inactive)
- GI50 (LOX IMVI): 25.5 µM (inactive)
- GI50 (RPMI-8226): 21.2 µM (inactive)
- GI50 (SNB-19): > 100 µM (inactive)
- GI50 (IGROV-1): > 100 µM (inactive)
- GI50 (RXF 393): > 100 µM (inactive)
- GI50 (OVCAR-4): > 100 µM (inactive)
- GI50 (HCT-15): 29.5 µM
- GI50 (EKVX): > 100 µM (inactive)
- GI50 (MOLT-4): > 100 µM (inactive)
- GI50 (SNB-75): > 100 µM (inactive)
- GI50 (KM12): > 100 µM (inactive)
- GI50 (A549): > 100 µM (inactive)
- GI50 (CAKI-1): > 100 µM (inactive)

SMILES: O=C(CCN(CCO)CCO)Nc1ccc2c(c1)C(=O)c1ccc(NC(=O)CCN(CCO)CCO)cc1C2=O
- GI50 (NCI-H226): 6.95 µM (inactive)
- GI50 (SN12C): 12.8 µM (inactive)
- GI50 (LOX IMVI): 14.2 µM (inactive)
- GI50 (RPMI-8226): 14.6 µM (inactive)
- GI50 (SNB-19): 22.5 µM (inactive)
- GI50 (IGROV-1): 13.7 µM (inactive)
- GI50 (RXF 393): 4 µM (inactive)
- GI50 (OVCAR-4): 20 µM (inactive)
- GI50 (HCT-15): 6.47 µM
- GI50 (EKVX): 5.69 µM (inactive)
- GI50 (MOLT-4): 13.8 µM (inactive)
- GI50 (HL-60): 9.59 µM (inactive)
- GI50 (SNB-75): 30.8 µM (inactive)
- GI50 (KM12): 14.4 µM (inactive)
- GI50 (A549): 44.4 µM (inactive)
- GI50 (CAKI-1): 5.56 µM (inactive)

SMILES: CN/N=C(\C)CC(=O)Nc1cccc(Cl)c1C
- GI50 (NCI-H226): > 100 µM (inactive)
- GI50 (SN12C): > 100 µM (inactive)
- GI50 (LOX IMVI): > 100 µM (inactive)
- GI50 (RPMI-8226): > 100 µM (inactive)
- GI50 (SNB-19): > 100 µM (inactive)
- GI50 (IGROV-1): > 100 µM (inactive)
- GI50 (RXF 393): > 100 µM (inactive)
- GI50 (OVCAR-4): > 100 µM (inactive)
- GI50 (HCT-15): > 100 µM
- GI50 (EKVX): > 100 µM (inactive)
- GI50 (MOLT-4): > 100 µM (inactive)
- GI50 (HL-60): > 100 µM (inactive)
- GI50 (SNB-75): > 100 µM (inactive)
- GI50 (KM12): > 100 µM (inactive)
- GI50 (A549): > 100 µM (inactive)
- GI50 (CAKI-1): > 100 µM (inactive)

SMILES: COCOCc1cc(OCc2ccccc2)c(OC)cc1Br
- GI50 (SN12C): > 100 µM (inactive)
- GI50 (LOX IMVI): 52.8 µM (inactive)
- GI50 (RPMI-8226): 47 µM (inactive)
- GI50 (SNB-19): > 100 µM (inactive)
- GI50 (IGROV-1): > 100 µM (inactive)
- GI50 (RXF 393): 47.4 µM (inactive)
- GI50 (OVCAR-4): > 100 µM (inactive)
- GI50 (HCT-15): 40.9 µM
- GI50 (EKVX): > 100 µM (inactive)
- GI50 (SNB-75): > 100 µM (inactive)
- GI50 (KM12): > 100 µM (inactive)
- GI50 (A549): > 100 µM (inactive)
- GI50 (CAKI-1): 64.3 µM (inactive)

SMILES: COc1c2c(cc3c1C(=O)Cc1ccc4c(c1CN(C)CC3)OCO4)OCO2
- GI50 (NCI-H226): 59.2 µM (inactive)
- GI50 (SN12C): > 100 µM (inactive)
- GI50 (LOX IMVI): > 100 µM (inactive)
- GI50 (RPMI-8226): 85.3 µM (inactive)
- GI50 (SNB-19): > 100 µM (inactive)
- GI50 (IGROV-1): 18.5 µM (inactive)
- GI50 (RXF 393): > 100 µM (inactive)
- GI50 (OVCAR-4): 75.5 µM (inactive)
- GI50 (HCT-15): > 100 µM
- GI50 (EKVX): > 100 µM (inactive)
- GI50 (MOLT-4): 36.7 µM (inactive)
- GI50 (HL-60): 30.1 µM (inactive)
- GI50 (SNB-75): 26.4 µM (inactive)
- GI50 (KM12): > 100 µM (inactive)
- GI50 (A549): > 100 µM (inactive)
- GI50 (CAKI-1): 79.3 µM (inactive)

SMILES: COc1ccc2c(C(=O)O)cc3ccccc3c2c1OC
- GI50 (NCI-H226): 24.4 µM (inactive)
- GI50 (SN12C): 20.9 µM (inactive)
- GI50 (LOX IMVI): 17.6 µM (inactive)
- GI50 (RPMI-8226): 31 µM (inactive)
- GI50 (SNB-19): 43.6 µM (inactive)
- GI50 (RXF 393): 15.2 µM (inactive)
- GI50 (EKVX): 20.1 µM (inactive)
- GI50 (MOLT-4): 32.9 µM (inactive)
- GI50 (HL-60): 27.1 µM (inactive)
- GI50 (SNB-75): 28.4 µM (inactive)
- GI50 (KM12): 18.3 µM (inactive)
- GI50 (A549): 30 µM (inactive)

Source: ChEMBL document CHEMBL1201862, “PubChem BioAssay data set” (2004)
